Laboratory results as given in US20250340565A1, “CD73 INHIBITOR COMPOUNDS” (AdoRx Therapeutics Limited, priority 2022, published 2025).
Counter-ions that a name gives are not always drawn.

Assays:
[1] = molecular target: human (h)CD73 (amino acids Trp27-Lys547) (Homo sapiens, UniProt P21589); assay: CD73 inhibition assay (Malachite Green phosphate detection); type: biochemical; conditions: 250 pM hCD73, 12.5 μM AMP, 20 min pre-incubation, absorbance 620 nm
In short: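 250 pM hCD73 (Trp27-Lys547) preincubated 20 min with compound (1% DMSO) in 25 mM Tris pH 7.5, 5 mM MgCl2, 0.002% Tween20. Reaction with 12.5 μM AMP for 20 min at room temperature; phosphate detected by malachite green at 620 nm. Data normalised to no compound (0%) and 10 μM control compound (100%).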

[2] = molecular target: CD73 activity in U138-MG cells (Homo sapiens (Human), UniProt P21589); assay: U138-MG inhibition assay (inorganic phosphate from AMP, PiColorLock Gold); type: cell-based; conditions: 100 μM AMP, 30 min pre-incubation, 1 hour at 37° C.
In short: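 Washed U138-MG cells in HEPES-buffered saline (pH 7.4) preincubated 30 min at 37 °C with inhibitor, then given 100 μM AMP (final) for 1 h at 37 °C. Released phosphate in supernatant read by PiColorLock Gold; no-AMP wells define 100% inhibition. IC50 taken as inflection of sigmoidal curve.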

[3] = molecular target: CD73 in whole blood (Homo sapiens (Human), UniProt P21589); assay: Whole blood AMP Glo assay; type: cell-based; conditions: whole blood of healthy volunteers, 10 μM AMP, 30 min pre-incubation, 15 min at 37° C., levamisole 1.5 mM
In short: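 Heparinised healthy-donor human whole blood, with 1.5 mM levamisole, preincubated with compound 30 min at 37 °C, then 10 μM AMP added for 15 min at 37 °C (0.6% DMSO). Remaining plasma AMP measured by AMP-Glo luminescence against a standard curve; IC50 from curve inflection point.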

Sequence of CD73 in whole blood (P21589 27-574): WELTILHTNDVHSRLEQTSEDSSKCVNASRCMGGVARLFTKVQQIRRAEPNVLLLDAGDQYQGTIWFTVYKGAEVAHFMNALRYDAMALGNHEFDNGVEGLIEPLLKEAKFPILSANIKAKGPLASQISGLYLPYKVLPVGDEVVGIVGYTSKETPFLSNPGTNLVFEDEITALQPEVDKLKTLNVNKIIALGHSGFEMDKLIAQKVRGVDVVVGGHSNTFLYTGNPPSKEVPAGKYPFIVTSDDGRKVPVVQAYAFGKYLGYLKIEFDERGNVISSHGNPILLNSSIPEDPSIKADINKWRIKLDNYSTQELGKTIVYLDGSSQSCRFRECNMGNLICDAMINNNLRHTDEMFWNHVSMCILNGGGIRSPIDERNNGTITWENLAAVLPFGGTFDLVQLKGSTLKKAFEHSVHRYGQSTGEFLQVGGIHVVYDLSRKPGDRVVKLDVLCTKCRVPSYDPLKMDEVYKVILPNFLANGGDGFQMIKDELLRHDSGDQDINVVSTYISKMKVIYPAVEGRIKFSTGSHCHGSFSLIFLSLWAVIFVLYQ
Sequence of CD73 activity in U138-MG cells (P21589 27-574): as above

| IC50 [1] [nM] | IC50 [2] [nM] | IC50 [3] [nM] | Compound |
| --- | --- | --- | --- |
| 84.7 | 10.5 | 2.12 | CCC1(C)CCN(c2ncnc3nn(-c4c[nH]c(=O)[nH]c4=O)cc23)C1 (stereo not drawn) [Example 13.5, 5-[4-(3-Ethyl-3-methyl-pyrrolidin-1-yl)pyrazolo[3,4-d]pyrimidin-2-yl]-1H-pyrimidine-2,4-dione] |
| 59.6 | 588 | 2220 | N#Cc1ccc(OC2CCN(c3ncnc4sc(-c5c[nH]c(=O)[nH]c5=O)cc34)C2)nc1 (stereo not drawn) [Example 3, 6-[1-[6-(2,4-Dioxo-1H-pyrimidin-5-yl)thieno[2,3-d]pyrimidin-4-yl]pyrrolidin-3-yl]oxypyridine-3-carbonitrile] |
| 68.2 | 17 | 69 | O=c1[nH]cc(-n2cc3c(N4CCC5(COC5)C4)ncc(F)c3n2)c(=O)[nH]1 [Example 26.4, 5-[7-fluoro-4-(2-oxa-7-azaspiro[3.4]octan-7-yl)pyrazolo[4,3-c]pyridin-2-yl]-1H-pyrimidine-2,4-dione] |
| 60.7 | 2.1 | 1.13 | O=c1[nH]cc(-n2cc3c(N4CC(F)(F)C5(CCC5)C4)ncnc3n2)c(=O)[nH]1 [Example 13.2, 5-[4-(8,8-Difluoro-6-azaspiro[3.4]octan-6-yl)pyrazolo[3,4-d]pyrimidin-2-yl]-1H-pyrimidine-2,4-dione] |
| 46 | 14 | 254 | O=c1[nH]cc(-n2cc3c(N4CC(F)(F)C5(CC5)C4)ncc(F)c3n2)c(=O)[nH]1 [Example 26.5, 5-[4-(7,7-difluoro-5-azaspiro[2.4]heptan-5-yl)-7-fluoro-pyrazolo[4,3-c]pyridin-2-yl]-1H-pyrimidine-2,4-dione] |
| 20.1 | 34.7 | 50.7 | O=c1[nH]cc(-c2cc3ncnc(N4CCC(OCCN5CCCCC5)C4)c3s2)c(=O)[nH]1 (stereo not drawn) [Example 8, 5-[4-[3-[2-(1-Piperidyl)ethoxy]pyrrolidin-1-yl]thieno[3,2-d]pyrimidin-6-yl]-1H-pyrimidine-2,4-dione] |
| 25.4 | 22.8 | 444 | CC1(C)CN(c2ncnc3oc(-c4c[nH]c(=O)[nH]c4=O)cc23)CC1(F)F [Example 7.1, 5-[4-(3,3-Difluoro-4,4-dimethyl-pyrrolidin-1-yl)furo[2,3-d]pyrimidin-6-yl]-1H-pyrimidine-2,4-dione] |
| 401 | 1120 | 6990 | CC1(C)CCN(c2ncnc3sc(-c4c[nH]c(=O)[nH]c4=O)cc23)C1 [Example 2.1, 5-[4-(3,3-Dimethylpyrrolidin-1-yl)thieno[2,3-d]pyrimidin-6-yl]-1H-pyrimidine-2,4-dione] |
| 269 | 498 | 516 | CN1CCOC(COC2CN(c3ncnc4sc(-c5c[nH]c(=O)[nH]c5=O)cc34)CC2(F)F)C1 (stereo not drawn) [Example 4.3, 5-[4-[3,3-Difluoro-4-[(4-methylmorpholin-2-yl)methoxy]pyrrolidine-1-yl]thieno[2,3-d]pyrimidin-6-yl]-1H-pyrimidine-2,4-dione formate salt] |
| 33.7 | 2.7 | 0.6 | O=c1[nH]cc(-n2cc3c(N4CCC(OCCN5CCCCC5)C4)ncnc3n2)c(=O)[nH]1 (stereo not drawn) [Example 12, 5-[4-[3-[2-(1-Piperidyl)ethoxy]pyrrolidin-1-yl]pyrazolo[3,4-d]pyrimidin-2-yl]-1H-pyrimidine-2,4-dione hydrochloride] |
| 152 | 61.9 | 139 | O=C(OC1CN(c2ncnc3oc(-c4c[nH]c(=O)[nH]c4=O)cc23)CC1(F)F)N1CC2CCC(C1)O2 (stereo not drawn) [Example 22.1, [1-[6-(2,4-Dioxo-1H-pyrimidin-5-yl)furo[2,3-d]pyrimidin-4-yl]-4,4-difluoro-pyrrolidin-3-yl]8-oxa-3-azabicyclo[3.2.1]octane-3-carboxylate] |
| 55.6 | 2.9 | 16 | CC1(C)CN(c2ncc(F)c3nn(-c4c[nH]c(=O)[nH]c4=O)cc23)CC1(F)F [Example 26, 5-[4-(3,3-Difluoro-4,4-dimethyl-pyrrolidin-1-yl)-7-fluoro-pyrazolo[4,3-c]pyridin-2-yl]-1H-pyrimidine-2,4-dione] |
| 59.4 | 108 | 119 | O=c1[nH]cc(-c2cc3c(N4CC(OCCN5CCCCC5)C(F)(F)C4)ncnn3c2)c(=O)[nH]1 (stereo not drawn) [Example 17, 5-[4-[3,3-Difluoro-4-[2-(1-piperidyl)ethoxy]pyrrolidin-1-yl]pyrrolo[2,1-f][1,2,4]triazin-6-yl]-1H-pyrimidine-2,4-dione formate salt] |
| 20.7 | 51.9 | 29.6 | O=c1[nH]cc(-c2cc3c(N4CCC(OCCN5CCCCC5)C4)ncnn3c2)c(=O)[nH]1 (stereo not drawn) [Example 10, 5-[4-[3-[2-(1-Piperidyl)ethoxy]pyrrolidin-1-yl]pyrrolo[2,1-f][1,2,4]triazin-6-yl]pyrimidine-2,4-diol] |
| 96.2 | 104 | 1990 | O=c1[nH]cc(-c2cc3c(N4CC(F)(F)C5(CCCC5)C4)ncnc3o2)c(=O)[nH]1 [Example 19.1, 5-[4-(4,4-Difluoro-2-azaspiro[4.4]nonan-2-yl)furo[2,3-d]pyrimidin-6-yl]-1H-pyrimidine-2,4-dione] |
| 32 | 179 | 184 | O=c1[nH]cc(-c2cc3c(N4CC(OCCN5CCCCC5)C(F)(F)C4)ncnc3s2)c(=O)[nH]1 (stereo not drawn) [Example 5, 5-[4-[3,3-Difluoro-4-[2-(1-piperidyl)ethoxy]pyrrolidine-1-yl]thieno[2,3-d]pyrimidin-6-yl]-1H-pyrimidine-2,4-dione formate salt] |
| 130 | 312 | 1590 | CC1(C)CN(c2ncnn3cc(-c4c[nH]c(=O)[nH]c4=O)cc23)CC1(F)F [Example 10.2, 5-[4-(3,3-Difluoro-4,4-dimethyl-pyrrolidin-1-yl)pyrrolo[2,1-f][1,2,4]triazin-6-yl]-1H-pyrimidine-2,4-dione] |
| 297 | 1340 | 1550 | O=c1[nH]cc(-c2cc3nccc(N4CCC(OCCN5CCCCC5)C4)c3s2)c(=O)[nH]1 (stereo not drawn) [Example 16, 5-[7-[3-[2-(1-Piperidyl)ethoxy]pyrrolidin-1-yl]thieno[3,2-b]pyridin-2-yl]-1H-pyrimidine-2,4-dione] |
